The results in this text go back to patent USRE47689E1, “Compounds for treating spinal muscular atrophy” (PTC Therapeutics, Inc., priority 2011, dated 2019).

The subject of test [1] is SMN2 minigene (full length SMN2 minigene mRNA containing SMN2 exon 7). Briefly: SMN2 minigene mRNA splicing RT-qPCR assay in cultured cells. It counts as cell-based, human. The settings on record: HEK293H cells stably transfected with SMN2-A minigene, 24 hours, 7-point concentration curve, 1.5-fold relative to vehicle-treated cells; for EC (1.5-fold): Homo sapiens, HEK293-H, read-out: EC1.5x for production of full length SMN2 mRNA. The method, boiled down:
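HEK293H cells stably carrying the SMN2-A minigene treated 24 h at 37° C with compound (DMSO, 200× stock), then lysed. Multiplex RT-qPCR (SMN primers 0.4 μM final; 40 cycles) measures full-length exon 7-containing minigene mRNA, normalized to GAPDH and to vehicle; EC1.5x derived and binned by stars.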
For orientation: Quantitative PCR measures a nucleic acid by following its amplification.

For another test, the system named is Smn protein. The test can be described thus: Smn protein assay in cultured cells (SMN HTRF). It counts as cell-based, human. The conditions noted are these: 48 hours; for EC1.5x (concentration giving 1.5-fold Smn protein increase): SMA Type 1 patient fibroblast cells (GM03813), 7-point concentration curve, SMN HTRF, concentration producing 1.5 times Smn protein vs DMSO vehicle control, read-out: EC1.5x for Smn protein expression; for maximum fold (Fold) increase of Smn protein: SMA patient fibroblast cells, 7-point concentration data, fold increase relative to vehicle control (SMN HTRF). The method, boiled down:
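Lysates in RIPA with protease inhibitors are incubated overnight at room temperature with HTRF anti-SMN antibodies. EC1.5x is derived from fold increase in ΔF over vehicle.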
On the technique in general: TR-FRET usually uses a lanthanide donor and a delayed reading to cut background.

As to `Cc1cn2cc(-c3cc4ccc(N5CCNC(C)(C)C5)cc4oc3=O)nc2c(C)n1` [Compound 736, 3-(6,8-dimethylimidazo[1,2-a]pyrazin-2-yl)-7-(3,3-dimethylpiperazin-1-yl)-2H-chromen-2-one], the EC (1.5-fold) in test [1] is below 0.1 µM. In the test with Smn protein, the EC1.5x (concentration giving 1.5-fold Smn protein increase) is below 300 nM and the “maximum fold (Fold) increase of Smn protein” value (“maximum fold (Fold) increase” below) was “***** (fold increase >1.65)”.
Take `CCN1CCCN(c2ccc3cc(-c4cn5cc(C)ncc5n4)c(=O)oc3c2)CC1` [Compound 618, 7-(4-ethyl-1,4-diazepan-1-yl)-3-(6-methylimidazo[1,2-a]pyrazin-2-yl)-2H-chromen-2-one]: the EC (1.5-fold) in test [1] was below 0.1 µM. In addition, in the test on Smn protein, the EC1.5x (concentration giving 1.5-fold Smn protein increase) was below 300 nM; the “maximum fold (Fold) increase” value is “**** (fold increase between >1.5 and ≤1.65)”.
For the molecule `Cc1cn2cc(-c3cc4ccc(N5CCN(CCO)[C@@H](C)C5)cc4oc3=O)nc2c(C)n1` [Compound 888, 3-(6,8-dimethylimidazo[1,2-a]pyrazin-2-yl)-7-[(3S)-4-(2-hydroxyethyl)-3-methylpiperazin-1-yl]-2H-chromen-2-one], the EC (1.5-fold) in test [1] was below 0.1 µM. Also, in the test on Smn protein, the EC1.5x (concentration giving 1.5-fold Smn protein increase) was below 300 nM and the “maximum fold (Fold) increase” value is reported as “***** (fold increase >1.65)”.
For `Cc1nc(Cl)cn2cc(-c3cc4ccc(N5C[C@@H]6C[C@H]5CN6)cc4oc3=O)nc12` [Compound 780, 3-(6-chloro-8-methylimidazo[1,2-a]pyrazin-2-yl)-7-[(1S,4S)-2,5-diazabicyclo[2.2.1]hept-2-yl]-2H-chromen-2-one], the EC (1.5-fold) in test [1] was below 0.1 µM. Besides, in the test with Smn protein, the EC1.5x (concentration giving 1.5-fold Smn protein increase) is below 300 nM; the “maximum fold (Fold) increase” value is “**** (fold increase between >1.5 and ≤1.65)”.
Take `Cc1cn2cc(-c3cc4ccc(N5CCN6CCC[C@H]6C5)cc4oc3=O)nc2cn1` [Compound 609, 7-[(8aS)-hexahydropyrrolo[1,2-a]pyrazin-2(1H)-yl]-3-(6-methylimidazo[1,2-a]pyrazin-2-yl)-2H-chromen-2-one]: the EC (1.5-fold) in test [1] is below 0.1 µM. Moreover, in the test on Smn protein, the EC1.5x (concentration giving 1.5-fold Smn protein increase) is below 300 nM and the “maximum fold (Fold) increase” value was “***** (fold increase >1.65)”.
In the case of `Cc1csc2nc(-c3cc4ccc(N5CCNCC5)cc4oc3=O)cn12.Cl.Cl.Cl` [Compound 141, 3-(3-methylimidazo[2,1-b][1,3]thiazol-6-yl)-7-(piperazin-1-yl)-2H-chromen-2-one hydrochloride (1:3)], the “EC1.5x for production of full length SMN2 mRNA” value in test [1] was “** (between >1 μM and ≤3 μM)”. Further, the “maximum fold (Fold) increase” value with Smn protein was “* (maximum fold increase of ≤1.2)”.
With `Cc1nc(Cl)cn2cc(-c3cc4ccc(N5C[C@@H]6C[C@H]5CN6C)cc4oc3=O)nc12` [Compound 787, 3-(6-chloro-8-methylimidazo[1,2-a]pyrazin-2-yl)-7-[(1S,4S)-5-methyl-2,5-diazabicyclo[2.2.1]hept-2-yl]-2H-chromen-2-one], in test [1], the EC (1.5-fold) is below 0.1 µM. Also, in the test on Smn protein, the EC1.5x (concentration giving 1.5-fold Smn protein increase) was in the range of 300 to 1000 nM; the “maximum fold (Fold) increase” value was “*** (fold increase between >1.35 and ≤1.5)”.
Consider `Cc1cn2cc(-c3cc4ccc(N5CCN(C)CC5)cc4oc3=O)nc2c(C)n1` [Compound 516, 3-(6,8-dimethylimidazo[1,2-a]pyrazin-2-yl)-7-(4-methylpiperazin-1-yl)-2H-chromen-2-one], for which the EC (1.5-fold) in test [1] is below 0.1 µM. In the test on Smn protein, the EC1.5x (concentration giving 1.5-fold Smn protein increase) was below 300 nM and the “maximum fold (Fold) increase” value is on record as “***** (fold increase >1.65)”.
With `Cc1cn2cc(-c3cc4ccc(N5CCN[C@@H](C)C5)cc4oc3=O)nc2c(C)n1` [Compound 537, 3-(6,8-dimethylimidazo[1,2-a]pyrazin-2-yl)-7-[(3S)-3-methylpiperazin-1-yl]-2H-chromen-2-one], the EC (1.5-fold) in test [1] is below 0.1 µM. Further, in the test on Smn protein, the EC1.5x (concentration giving 1.5-fold Smn protein increase) is below 300 nM and the “maximum fold (Fold) increase” value is “***** (fold increase >1.65)”.
